Marks after values point to notes of the source that are not given here.
System: lactating cows
Assay: Example 2: 3x3 Latin square feeding of lactating cows, control ration plus about 50 or 100 g sorbitol per day
Format: in vivo, Holstein cows
Conditions: for Milk Protein / Lactose / Total Solids / Dry Matter Intake / Milk Production: last 14 of 28 days
Excerpt: In this example, fifteen Holstein cows (nine multiparous and six primiparous) averaging about sixty-five days in milk each, and thus in early lactation, were arranged in a 3×3 Latin square design, also known as the switch back design, that was replicated five times. Each cow was randomly allotted to the control ration treatment, to the first test ration treatment, or to the second test ration treatment. In the 3×3 Latin square design, each cow is cycled through each treatment, namely, the control ration treatment, the first test ration treatment, and the second test ration treatment. This permits each cow to act as a control for standardizing the testing differences observed between each treatment for each cow. Sufficient time between feeding treatments (between the control ration treatment, the first ration test treatment, and the second test ration treatment) was allowed to permit normalization of each cow before being switched to a different treatment. The cows were blocked by parity milk production, based upon the level of milk production by individual cows, after being in milk for forty-five days. After being blocked by parity milk production, the cows were randomly allotted to the control ration feeding, the first test ration feeding, or the second test ration feeding. The components of the control ration used in this example are shown in Table 5: The control ration was placed in the feeding troughs of the cattle once daily in the morning. When the first test ration was to be provided to the test cattle, sorbitol was top dressed and lightly mixed into the control ration in the feeding trough of each cow being supplied with the first test ration dosage of about 50 grams of sorbitol per cow per day, about one hour after the control ration was placed in the feeding trough. When the second test ration was to be provided to the test cattle, sorbitol was top dressed and lightly mixed into the control ration in the feeding trough of each cow being supplied with the second test ration dosage of about 100 grams of sorbitol per cow per day, about one hour after the control ration was placed in the feeding trough. Then, the control ration, the first test ration, and the second test ration were lightly mixed in front of the cows six times per day to encourage additional feed ingestion by the cattle. Leftover rations from the previous days feeding were collected and weighed from each feeding trough prior to feeding the test cattle the next day. The cows received a sufficient amount of the control ration to ensure that at least about ten weight percent, based upon the amount of control ration provided at the beginning of each day, remained per day for each test cow. The amount of sorbitol that was top dressed in the control ration to form the first test ration was adjusted upward to account for the excess of control ration provided to ensure that the cows ingested the first test ration dosage of about 50 grams of sorbitol per cow per day. Likewise, the amount of sorbitol that was top dressed in the control ration to form the second test ration was adjusted upward to account for the excess of control ration provided to ensure that the cows ingested the second test ration dosage of about 100 grams of sorbitol per cow per day. Feed refusals were measured daily, and water was supplied ad libitum. Each test cow received routine care and management consistent with appropriate recommendations in the Guide for the Care and Use of Agricultural Animals in Agricultural Research and Teaching (1st edition, March 1988). Each cow was milked three times daily and the weight of produced milk was recorded at each milking. The milk was sampled once per day (⅓ of the sample volume from each milking) and was analyzed for protein, fat, lactose, and total solids, in accordance with the property determination and characterization techniques presented above. […]

OC[C@@H](O)[C@@H](O)[C@H](O)[C@@H](O)CO [sorbitol]
Milk Protein (about 50 g sorbitol/day/cow, Block 1, control 2.23, P >0.10): 2.22 pounds/day/cow | Lactose (about 50 g sorbitol/day/cow, Block 1, control 3.99, P >0.10): 4.10 pounds/day/cow | Total Solids (about 50 g sorbitol/day/cow, Block 1, control 9.51, P >0.10): 9.77 pounds/day/cow | Dry Matter Intake (about 50 g sorbitol/day/cow, Block 1, control 45.0, P >0.10): 44.2 pounds/day/cow | Milk Protein (about 50 g sorbitol/day/cow, Block 2, control 2.13, P >0.10): 2.18 pounds/day/cow | Lactose (about 50 g sorbitol/day/cow, Block 2, control 3.72, P 0.07): 3.89^b pounds/day/cow | Total Solids (about 50 g sorbitol/day/cow, Block 2, control 8.95, P >0.10): 9.48 pounds/day/cow | Dry Matter Intake (about 50 g sorbitol/day/cow, Block 2, control 42.9, P 0.04): 45.3^b pounds/day/cow | Milk Production (about 50 g sorbitol/day/cow, Block 2, control 75.3, P 0.10): 78.0^b pounds/day/cow | Milk Protein (about 50 g sorbitol/day/cow, Block 3, control 2.62, P >0.10): 2.89 pounds/day/cow | Lactose (about 50 g sorbitol/day/cow, Block 3, control 4.32, P >0.10): 4.84 pounds/day/cow | Total Solids (about 50 g sorbitol/day/cow, Block 3, control 10.70, P >0.10): 11.53 pounds/day/cow | Dry Matter Intake (about 50 g sorbitol/day/cow, Block 3, control 54.4, P 0.10): 60.7^b pounds/day/cow | Milk Production (about 50 g sorbitol/day/cow, Block 3, control 89.0, P 0.28): 98.8 pounds/day/cow | Milk Protein (about 50 g sorbitol/day/cow, Block 4, control 2.83, P 0.08): 3.18^b pounds/day/cow | Lactose (about 50 g sorbitol/day/cow, Block 4, control 4.56, P 0.06): 4.88^b pounds/day/cow | Total Solids (about 50 g sorbitol/day/cow, Block 4, control 11.46, P 0.09): 12.35^b pounds/day/cow | Dry Matter Intake (about 50 g sorbitol/day/cow, Block 4, control 61.0, P >0.10): 62.6 pounds/day/cow | Milk Production (about 50 g sorbitol/day/cow, Block 4, control 97.6, P 0.07): 102.9^b pounds/day/cow | Milk Protein (about 50 g sorbitol/day/cow, Block 5, control 3.35, P >0.10): 3.39 pounds/day/cow | Lactose (about 50 g sorbitol/day/cow, Block 5, control 5.70, P 0.05): 5.86^b pounds/day/cow | Total Solids (about 50 g sorbitol/day/cow, Block 5, control 13.46, P >0.10): 13.83 pounds/day/cow | Dry Matter Intake (about 50 g sorbitol/day/cow, Block 5, control 65.1, P >0.10): 66.6 pounds/day/cow | Milk Production (about 50 g sorbitol/day/cow, Block 5, control 119.1, P 0.10): 122.4^b pounds/day/cow | Milk Protein (about 50 g sorbitol/day/cow, all cows, control 2.63, P >0.10): 2.77 pounds/day/cow | Lactose (about 50 g sorbitol/day/cow, all cows, control 4.46, P 0.04): 4.71^b pounds/day/cow | Total Solids (about 50 g sorbitol/day/cow, all cows, control 10.82, P 0.07): 11.39^b pounds/day/cow | Dry Matter Intake (about 50 g sorbitol/day/cow, all cows, control 53.7, P 0.05): 55.9^b pounds/day/cow | Milk Production (about 50 g sorbitol/day/cow, all cows, control 92.9, P 0.05): 97.5^b pounds/day/cow | Milk Protein (about 50 g sorbitol/day/cow, multiparous cows only, control 2.93, P 0.08): 3.15^b pounds/day/cow | Lactose (about 50 g sorbitol/day/cow, multiparous cows only, control 4.86, P 0.07): 5.19^b pounds/day/cow | Total Solids (about 50 g sorbitol/day/cow, multiparous cows only, control 11.87, P >0.10): 12.57 pounds/day/cow | Dry Matter Intake (about 50 g sorbitol/day/cow, multiparous cows only, control 60.2, P 0.09): 63.3^b pounds/day/cow | Milk Production (about 50 g sorbitol/day/cow, multiparous cows only, control 101.9, P 0.07): 108.0^b pounds/day/cow | Milk Protein (about 50 g sorbitol/day/cow, primiparous cows only, control 2.18, P >0.10): 2.20 pounds/day/cow | Lactose (about 50 g sorbitol/day/cow, primiparous cows only, control 3.85, P >0.10): 3.99 pounds/day/cow | Total Solids (about 50 g sorbitol/day/cow, primiparous cows only, control 9.23, P >0.10): 9.63 pounds/day/cow | Dry Matter Intake (about 50 g sorbitol/day/cow, primiparous cows only, control 44.0, P >0.10): 44.7 pounds/day/cow | Milk Production (about 50 g sorbitol/day/cow, primiparous cows only, control 79.5, P >0.10): 81.8 pounds/day/cow | Milk Protein (about 100 g sorbitol/day/cow, Block 1, control 2.23, P >0.10): 2.19 pounds/day/cow | Lactose (about 100 g sorbitol/day/cow, Block 1, control 3.99, P >0.10): 4.07 pounds/day/cow | Total Solids (about 100 g sorbitol/day/cow, Block 1, control 9.51, P >0.10): 9.94 pounds/day/cow | Dry Matter Intake (about 100 g sorbitol/day/cow, Block 1, control 45.0, P >0.10): 44.4 pounds/day/cow | Milk Production (about 100 g sorbitol/day/cow, Block 1, control 83.7, P >0.10): 85.2 pounds/day/cow | Milk Protein (about 100 g sorbitol/day/cow, Block 2, control 2.13, P >0.10): 2.12 pounds/day/cow | Lactose (about 100 g sorbitol/day/cow, Block 2, control 3.72, P 0.07): 3.82^ab pounds/day/cow | Total Solids (about 100 g sorbitol/day/cow, Block 2, control 8.95, P >0.10): 9.29 pounds/day/cow | Dry Matter Intake (about 100 g sorbitol/day/cow, Block 2, control 42.9, P 0.04): 42.6^ab pounds/day/cow | Milk Production (about 100 g sorbitol/day/cow, Block 2, control 75.3, P 0.10): 77.1^ab pounds/day/cow | Milk Protein (about 100 g sorbitol/day/cow, Block 3, control 2.62, P >0.10): 2.85 pounds/day/cow | Lactose (about 100 g sorbitol/day/cow, Block 3, control 4.32, P >0.10): 4.86 pounds/day/cow | Total Solids (about 100 g sorbitol/day/cow, Block 3, control 10.70, P >0.10): 11.62 pounds/day/cow | Dry Matter Intake (about 100 g sorbitol/day/cow, Block 3, control 54.4, P 0.10): 60.1^ab pounds/day/cow | Milk Production (about 100 g sorbitol/day/cow, Block 3, control 89.0, P 0.28): 99.0 pounds/day/cow | Milk Protein (about 100 g sorbitol/day/cow, Block 4, control 2.83, P 0.08): 3.01^ab pounds/day/cow | Lactose (about 100 g sorbitol/day/cow, Block 4, control 4.56, P 0.06): 4.57^ab pounds/day/cow | Total Solids (about 100 g sorbitol/day/cow, Block 4, control 11.46, P 0.09): 11.01^ab pounds/day/cow | Dry Matter Intake (about 100 g sorbitol/day/cow, Block 4, control 61.0, P >0.10): 61.2 pounds/day/cow | Milk Production (about 100 g sorbitol/day/cow, Block 4, control 97.6, P 0.07): 95.9^ab pounds/day/cow | Milk Protein (about 100 g sorbitol/day/cow, Block 5, control 3.35, P >0.10): 3.36 pounds/day/cow | Lactose (about 100 g sorbitol/day/cow, Block 5, control 5.70, P 0.05): 5.78^ab pounds/day/cow | Total Solids (about 100 g sorbitol/day/cow, Block 5, control 13.46, P >0.10): 13.78 pounds/day/cow | Dry Matter Intake (about 100 g sorbitol/day/cow, Block 5, control 65.1, P >0.10): 65.8 pounds/day/cow | Milk Production (about 100 g sorbitol/day/cow, Block 5, control 119.1, P 0.10): 121.0^ab pounds/day/cow | Milk Protein (about 100 g sorbitol/day/cow, all cows, control 2.63, P >0.10): 2.71 pounds/day/cow | Lactose (about 100 g sorbitol/day/cow, all cows, control 4.46, P 0.04): 4.62^ab pounds/day/cow | Total Solids (about 100 g sorbitol/day/cow, all cows, control 10.82, P 0.07): 11.12^ab pounds/day/cow | Dry Matter Intake (about 100 g sorbitol/day/cow, all cows, control 53.7, P 0.05): 54.8^ab pounds/day/cow | Milk Production (about 100 g sorbitol/day/cow, all cows, control 92.9, P 0.05): 95.6^ab pounds/day/cow | Milk Protein (about 100 g sorbitol/day/cow, multiparous cows only, control 2.93, P 0.08): 3.07^ab pounds/day/cow | Lactose (about 100 g sorbitol/day/cow, multiparous cows only, control 4.86, P 0.07): 5.07^ab pounds/day/cow | Total Solids (about 100 g sorbitol/day/cow, multiparous cows only, control 11.87, P >0.10): 12.13 pounds/day/cow | Dry Matter Intake (about 100 g sorbitol/day/cow, multiparous cows only, control 60.2, P 0.09): 62.3^ab pounds/day/cow | Milk Production (about 100 g sorbitol/day/cow, multiparous cows only, control 101.9, P 0.07): 105.3^ab pounds/day/cow | Milk Protein (about 100 g sorbitol/day/cow, primiparous cows only, control 2.18, P >0.10): 2.16 pounds/day/cow | Lactose (about 100 g sorbitol/day/cow, primiparous cows only, control 3.85, P >0.10): 3.95 pounds/day/cow | Total Solids (about 100 g sorbitol/day/cow, primiparous cows only, control 9.23, P >0.10): 9.62 pounds/day/cow | Dry Matter Intake (about 100 g sorbitol/day/cow, primiparous cows only, control 44.0, P >0.10): 43.5 pounds/day/cow | Milk Production (about 100 g sorbitol/day/cow, primiparous cows only, control 79.5, P >0.10): 81.2 pounds/day/cow | improvement of milk production rate versus cows fed only the control ration (first test ration, about 50 g sorbitol per day, all cows): 4.6 pounds per day per cow | improvement of milk production rate versus cows fed only the control ration (second test ration, about 100 g sorbitol per day, all cows): 2.7 pounds per day per cow

From patent US9889099B2, “Method and composition for enhancing milk production” (LAND O'LAKES, INC., priority 1999, dated 2018)
